Assay results reported in patent US9885086B2, “Phospholipase C gamma 2 and resistance associated mutations” (Pharmacyclics LLC, priority 2014, dated 2018).

Tested on: DT40 cells stably expressing mutated PLCγ2 (L845F)
Assay: Calcium flux assay in DT40 cells after anti-IgM stimulation
Assay type: cell-based, chicken
Settings: L845F PLCγ2 mutant DT40 cells, 1 μM Ibrutinib 30 min
Procedure: The intracellular calcium level was detected by Calcium Assay Kit (BD Biosciences, San Diego, Calif.) and measured by Beckman Coulter DTX880 microplate reader. After 195 seconds of acquisition to determine the baseline, 3 μg/ml anti-chicken IgM (SouthernBiotech, Birmingham, Ala.) was added to stimulate the cells.
WT PLCγ2 and L845F PLCγ2 were stably transfected into 293 cells and DT40 cells which lack endogenous PLCγ2 expression (FIG. 5). Calcium flux was examined in DT40 cells after anti-IgM stimulation in the presence of WT or mutant PLCγ2.

With `C=CC(=O)N1CCC[C@@H](n2nc(-c3ccc(Oc4ccccc4)cc3)c3c(N)ncnc32)C1` [ibrutinib] the “inhibition of IgM-mediated calcium flux” value was “not inhibited”.
